How the values were obtained:
[1] = biological target: T1, human CYP11B1 (Homo sapiens, UniProt P15538); test: Inhibition of hCYP11B1 in transfected V79 cells; assay type: cell-based; conditions: hamster V79 cells expressing human CYP11B1; substrate 11-deoxycortisol 200 nM
T1 construct: expressed in transfected cells
T1 sequence (P15538 25-503): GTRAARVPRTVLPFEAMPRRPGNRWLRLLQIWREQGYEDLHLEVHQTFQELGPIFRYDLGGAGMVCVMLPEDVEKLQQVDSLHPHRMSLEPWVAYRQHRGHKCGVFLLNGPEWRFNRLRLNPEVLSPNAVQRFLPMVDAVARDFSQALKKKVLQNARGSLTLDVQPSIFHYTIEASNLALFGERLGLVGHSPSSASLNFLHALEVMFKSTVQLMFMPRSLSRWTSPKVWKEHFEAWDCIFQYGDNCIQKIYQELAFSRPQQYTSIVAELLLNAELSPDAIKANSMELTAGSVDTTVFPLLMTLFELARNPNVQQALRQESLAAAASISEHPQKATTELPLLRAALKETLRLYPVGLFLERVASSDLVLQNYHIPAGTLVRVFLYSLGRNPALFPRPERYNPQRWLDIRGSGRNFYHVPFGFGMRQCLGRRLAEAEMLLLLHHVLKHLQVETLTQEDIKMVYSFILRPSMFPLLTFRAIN
Protocol: (§1) Genes of human CYP11B1 and rat NADPH-P450 reductase were transfected into hamster V79 cells using a lentivirus vector, and stably-expressing cell lines were selected by taking advantages of the associated puromycin-resistance gene. Cultured cells were diluted and seeded in a 96-well plate with an amount of approximately 10,000 per well. After pre-incubation with suitable concentrations of the test compounds for 2 hours, 11-deoxycortisol of 200 nM was added as the substrate to initiate the catalytic reaction. After further incubation for 30 minutes, it was quenched with ethyl acetate. Subsequently, the substrate and product(s) were quantified using LC-MS/MS or HPLC at 260 nm, and the IC50 values were calculated according to inhibitory percentage.

[2] = biological target: T2, human CYP11B2 (Homo sapiens, UniProt P19099); test: Inhibition of hCYP11B2 in transfected V79 cells; assay type: cell-based; conditions: hamster V79 cells expressing human CYP11B2; substrate 11-deoxycorticosterone 200 nM
T2 construct: expressed in transfected cells
T2 sequence (P19099 25-503): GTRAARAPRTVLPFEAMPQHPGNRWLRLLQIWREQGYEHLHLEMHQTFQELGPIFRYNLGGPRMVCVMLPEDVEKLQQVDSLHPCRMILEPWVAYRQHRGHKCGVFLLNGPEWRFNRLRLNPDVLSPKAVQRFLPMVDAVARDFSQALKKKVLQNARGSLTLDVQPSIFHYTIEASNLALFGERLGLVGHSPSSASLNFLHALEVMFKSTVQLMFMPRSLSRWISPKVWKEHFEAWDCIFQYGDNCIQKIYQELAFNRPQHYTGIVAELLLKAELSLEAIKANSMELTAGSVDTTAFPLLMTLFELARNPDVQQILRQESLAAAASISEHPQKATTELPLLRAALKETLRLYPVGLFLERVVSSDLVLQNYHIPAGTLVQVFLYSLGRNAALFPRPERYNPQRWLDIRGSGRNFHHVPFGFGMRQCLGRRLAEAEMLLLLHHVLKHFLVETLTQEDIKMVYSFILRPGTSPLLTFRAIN
Protocol: as §1, with “CYP11B2” for “CYP11B1”, “11-deoxycorticosterone” for “11-deoxycortisol”

Compound	IC50 [1] [nM]	IC50 [2] [nM]
N#Cc1ccc(-c2cncc3c2OCCN3S(=O)(=O)C2CN(C(=O)c3cccc(C#N)c3)C2)cc1 [O110, 4-(4-((1-(3-Cyanobenzoyl)azetidin-3-yl)sulfonyl)-3,4-dihydro-2H-pyrido[4,3-b][1,4]oxazin-8-yl)benzonitrile]	484	19.3
N#Cc1ccc(-c2cncc3c2SCC(=O)N3C(=O)c2ccc(Cl)cc2)cc1 [S100, 4-(4-(4-chlorobenzoyl)-3-oxo-3,4-dihydro-2H-pyrido[4,3-b][1,4]thiazin-8-yl)benzonitrile]	966	10.6
N#Cc1ccc(-c2cncc3c2OCCN3C(=O)c2cccc(F)c2)cc1 [O20, 4-(4-(3-Fluorobenzoyl)-3,4-dihydro-2H-pyrido[4,3-b][1,4]oxazin-8-yl)benzonitrile]	1730	25.2
N#Cc1ccc(CN2CC(S(=O)(=O)N3CCOc4c(-c5ccc(C#N)cc5)cncc43)C2)cc1 [O121, 4-(4-((1-(4-Cyanobenzyl)azetidin-3-yl)sulfonyl)-3,4-dihydro-2H-pyrido[4,3-b][1,4]oxazin-8-yl)benzonitrile]	36	0.4
N#Cc1ccc(-c2cncc3c2OCCN3C(=O)CNC(=O)c2ccc(F)cc2)cc1 [O59, N-(2-(8-(4-Cyanophenyl)-2,3-dihydro-4H-pyrido[4,3-b][1,4]oxazin-4-yl)-2-oxoethyl)-4-fluorobenzamide]	276	2.8
Cc1ccccc1C(=O)n1ccc2c(-c3ccc(C#N)cc3)cncc21 [E27, 4-(1-(2-Methylbenzoyl)-1H-pyrrolo[2,3-c]pyridin-4-yl)benzonitrile]	73	1.5
N#Cc1ccc(-c2cncc3c2OCCN3C(=O)C2CN(S(=O)(=O)c3cccc([N+](=O)[O-])c3)C2)cc1 [O63, 4-(4-(1-((3-Nitrophenyl)sulfonyl)azetidine-3-carbonyl)-3,4-dihydro-2H-pyrido[4,3-b][1,4]oxazin-8-yl)benzonitrile]	181	2
N#Cc1ccc(-c2cncc3c2SCCN3C(=O)c2cccc(C(F)(F)F)c2)cc1 [S87, 4-(4-(3-(Trifluoromethyl)benzoyl)-3,4-dihydro-2H-pyrido[4,3-b][1,4]thiazin-8-yl)benzonitrile]	522	12
N#Cc1ccc(-c2cncc3c2CCN3C(=O)Cc2ccccc2Br)cc1 [C65, 4-(1-(2-(2-Bromophenyl)acetyl)-2,3-dihydro-1H-pyrrolo[2,3-c]pyridin-4-yl)benzonitrile]	292	7.6
O=C(C1CN(Cc2cccc(F)c2)C1)N1CCOc2c(-c3ccc4nccn4c3)cncc21 [O90, (1-(3-Fluorobenzyl)azetidin-3-yl)(8-(imidazo[1,2-a]pyridin-6-yl)-2,3-dihydro-4H-pyrido[4,3-b][1,4]oxazin-4-yl)methanone]	3260	48.8
COc1ccc(CC(=O)N2CCc3c(-c4ccc(C#N)cc4)cncc32)cc1 [C76, 4-(1-(2-(4-Methoxyphenyl)acetyl)-2,3-dihydro-1H-pyrrolo[2,3-c]pyridin-4-yl)benzonitrile]	62	9
N#Cc1ccc(-c2cncc3c2CCN3C(=O)c2cccc(C(F)(F)F)c2)cc1 [C23, 4-(1-(3-(Trifluoromethyl)benzoyl)-2,3-dihydro-1H-pyrrolo[2,3-c]pyridin-4-yl)benzonitrile]	310	7
N#Cc1ccc(-c2cncc3c2OCCN3C(=O)C23CC(Nc4cccc(F)c4)(C2)C3)cc1 [O71, 4-(4-(3-((3-Fluorophenyl)amino)bicyclo[1.1.1]pentane-1-carbonyl)-3,4-dihydro-2H-pyrido[4,3-b][1,4]oxazin-8-yl)benzonitrile]	2170	39
N#Cc1ccc(-c2cncc3c2CCN3C(=O)c2ccc(F)cc2)cc1 [C25, 4-(1-(4-Fluorobenzoyl)-2,3-dihydro-1H-pyrrolo[2,3-c]pyridin-4-yl)benzonitrile]	988	30
N#Cc1ccc(-c2cncc3c2OCCN3S(=O)(=O)C2CN(Cc3cccc(F)c3)C2)cc1 [O122, 4-(4-((1-(3-Fluorobenzyl)azetidin-3-yl)sulfonyl)-3,4-dihydro-2H-pyrido[4,3-b][1,4]oxazin-8-yl)benzonitrile]	59	0.8
N#Cc1ccc(-c2cncc3c2OCCN3S(=O)(=O)c2cccs2)cc1 [O16, 4-(4-(Thiophen-2-ylsulfonyl)-3,4-dihydro-2H-pyrido[4,3-b][1,4]oxazin-8-yl)benzonitrile]	0.04	0.56
N#Cc1ccc(C(=O)N2CC(S(=O)(=O)N3CCSc4c(-c5ccc(C#N)cc5)cncc43)C2)cc1 [S70, 4-(4-((1-(4-Cyanobenzoyl)azetidin-3-yl)sulfonyl)-3,4-dihydro-2H-pyrido[4,3-b][1,4]thiazin-8-yl)benzonitrile]	49	1.4
N#Cc1ccc(-c2cncc3c2SCCN3Cc2ccc(F)cc2)cc1 [S2, 4-(4-(4-Fluorobenzyl)-3,4-dihydro-2H-pyrido[4,3-b][1,4]thiazin-8-yl)benzonitrile]	> 5000	473
N#Cc1ccc(-c2cncc3c2SCCN3S(=O)(=O)C2CN(C(=O)c3cccc(C#N)c3)C2)cc1 [S71, 3-(3-((8-(4-Cyanophenyl)-2,3-dihydro-4H-pyrido[4,3-b][1,4]thiazin-4-yl)sulfonyl)azetidine-1-carbonyl)benzonitrile]	349	14
N#Cc1ccc(-c2cncc3c2OCCN3C(=O)c2ccccc2F)cc1 [O21, 4-(4-(2-Fluorobenzoyl)-3,4-dihydro-2H-pyrido[4,3-b][1,4]oxazin-8-yl)benzonitrile]	1130	26.1
N#Cc1ccc(-c2cncc3c2SCCN3S(=O)(=O)C2CN(Cc3cccc(C#N)c3)C2)cc1 [S81, 3-((3-((8-(4-Cyanophenyl)-2,3-dihydro-4H-pyrido[4,3-b][1,4]thiazin-4-yl)sulfonyl)azetidin-1-yl)methyl)benzonitrile]	19	0.4
Cn1c(=O)c(=O)[nH]c2cncc(-c3ccc(F)cc3)c21 [N2, 8-(4-Fluorophenyl)-1-methyl-1,4-dihydropyrido[3,4-b]pyrazine-2,3-dione]	746	593
N#Cc1ccc(-c2cncc3c2OCCN3S(=O)(=O)C2CN(S(=O)(=O)c3ccc(F)cc3)C2)cc1 [O116, 4-(4-((1-((4-Fluorophenyl)sulfonyl)azetidin-3-yl)sulfonyl)-3,4-dihydro-2H-pyrido[4,3-b][1, 4]oxazin-8-yl)benzonitrile]	54	3.1
N#Cc1ccc(-c2cncc3c2CCN3C(=O)Cc2ccc(Cl)cc2)cc1 [C77, 4-(1-(2-(4-Chlorophenyl)acetyl)-2,3-dihydro-1H-pyrrolo[2,3-c]pyridin-4-yl)benzonitrile]	376	8
CS(=O)(=O)N1CCOc2c(-c3ccc(C#N)cc3)cncc21 [O14, 4-(4-(Methylsulfonyl)-3,4-dihydro-2H-pyrido[4,3-b][1,4]oxazin-8-yl)benzonitrile]	0.41	0.2
N#CN1CC=C(c2cncc3c2OCCN3C(=O)C2CN(Cc3cccc(F)c3)C2)CC1 [O97, 4-(4-(1-(3-Fluorobenzyl)azetidine-3-carbonyl)-3,4-dihydro-2H-pyrido[4,3-b][1,4]oxazin-8-yl)-3,6-dihydropyridine-1 (2H)-carbonitrile]	219	35
N#Cc1ccc(-c2cncc3c2CCN3C(=O)Cc2ccc(Br)cc2)cc1 [C73, 4-(1-(2-(4-Bromophenyl)acetyl)-2,3-dihydro-1H-pyrrolo[2,3-c]pyridin-4-yl)benzonitrile]	124	11
